# Calls of active or inactive are those of the source. No rule for the calls is given here.
# Molecular target: Bcl-2-related protein A1 (Homo sapiens) (UniProt Q16548)
# Assay: inhibitors of Bim binding to Bfl-1, dose response, biochemical, multiplexed, bead-based flow cytometry (AID 1320); as to percent span (inhibition): test concentration not given here
# Details: Bim peptide-Bfl-1 binding, fluorescence
# Bcl-2-related protein A1 (Homo sapiens), sequence (Q16548 whole entry, looked up): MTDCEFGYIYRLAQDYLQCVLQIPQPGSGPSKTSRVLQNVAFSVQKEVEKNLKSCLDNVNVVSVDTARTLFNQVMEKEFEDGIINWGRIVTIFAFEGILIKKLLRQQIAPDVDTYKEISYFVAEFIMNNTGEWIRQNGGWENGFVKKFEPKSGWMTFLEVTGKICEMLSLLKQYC
row,Compound,EC50 [nM]
1,CCC(=O)N(CC)C1=C(O)c2ccccc2C(=O)C1=O,80

# Same assay, conditions: Bim peptide-Bfl-1 binding, fluorescence, stronger effect = higher value
row,Compound,percent span (inhibition)
1,Cc1ccc(C)c(NC(=O)C(=O)NCc2ccccn2)c1,inactive
2,NC(=O)c1c(NC(=O)C2CCCO2)sc2c1CCCCC2 (stereo unspecified),inactive
3,CCCC1(C(=O)OCC)NC(c2cc(OC)c(OC)c(OC)c2)C2C(=O)N(CC)C(=O)C21 (stereo unspecified),inactive
4,COC(=O)c1ccc(-n2nnnc2SCC(=O)Nc2cc(OC)ccc2OC)cc1,inactive
5,CCC(=O)NC(c1ccc(C)cc1)c1cc([N+](=O)[O-])c2cccnc2c1O (stereo unspecified),inactive
6,Cc1ccccc1-n1c(SCc2cccc(F)c2)nc2[nH]ncc2c1=O,inactive
7,COc1ccc(-n2c(=O)c3ccccc3c3ccccc3c2=O)c(OC)c1,inactive
8,COc1cccc(NC(=O)CSc2nncn2N)c1,inactive
9,Cc1ccnc(SCc2cc(=O)c(OC(=O)c3ccc(Cl)c([N+](=O)[O-])c3)co2)n1,inactive
10,C=CCn1c(SCC(=O)Nc2ccc3c(c2)OCO3)nnc1-c1cc(Br)ccc1O,inactive
11,O=C(/C=C/c1ccc(-c2ccccc2[N+](=O)[O-])o1)c1ccc(F)cc1,inactive
12,CCOc1ccc(C2=Nn3c(nnc3-c3ccccn3)SC2)cc1,inactive
13,CN1CCN(c2ccc(N)cc2)CC1,inactive
14,Clc1nc2ccccc2cc1/C=N/Nc1nc2ccccc2[nH]1,inactive
15,CN(/N=C/C=C/c1ccccc1)C1=NS(=O)(=O)c2ccccc21,inactive
16,Cc1ccc(-c2nnc(Cc3ccc(Cl)cc3)o2)cc1,inactive
17,Cc1ccc(OCC(=O)NCc2ccccn2)c(Br)c1,inactive
18,Cc1ccc(-c2ccc(CCC(=O)O)n2NC(=O)c2cccs2)cc1,inactive
19,CC1CC2=C(NC(=S)NC2c2ccccc2F)/C(=C/c2ccccc2F)C1 (stereo unspecified),inactive
20,COCCNC(=S)Nc1cc(OC)c(OC)cc1C#N,inactive
21,O=C1Nc2ccc([N+](=O)[O-])cc2OC1CCN1CCN(Cc2ccc3c(c2)OCO3)CC1 (stereo unspecified),inactive
22,COc1ccc(C(=S)N2CCCCCC2)cc1,inactive
23,COC(=O)C1C2c3ccccc3OC1(C)N=c1s/c(=C/c3cnn(C)c3C)c(=O)n12 (stereo unspecified),inactive
24,O=C(/C=C\c1ccc(-c2ccccc2)o1)c1ccccc1,inactive

row,Compound,percent span (inhibition)
1,CCCCCCn1nc(C(=O)Nc2nc3c(s2)CCCC3)c2ccccc2c1=O,inactive
2,CSc1ccccc1NC(=O)CN(C)CC(=O)Nc1ccc(N2CCOCC2)cc1,inactive
3,Cc1ccc(/C=N/NC(=O)CSc2nnc(-c3ccc(Cl)cc3)n2-c2ccccc2)o1,inactive
4,Cc1cc(NC(=O)CCSc2ccccc2)ccc1Br,inactive
5,CCCn1c(SCC(=O)Nc2ccccc2-c2ccccc2)nnc1-c1ccoc1C,inactive
6,COCCNc1nc(=S)[nH]c2cc(OC)c(OC)cc12,inactive
7,CCOc1ncccc1C(=O)OC(C)C(=O)Nc1ccc(CC)cc1 (stereo unspecified),inactive
8,O=C(CNC(=O)c1ccc(S(=O)(=O)N2CCCC2)cc1)N/N=C/c1ccc(Cl)cc1Cl,inactive
9,O=C1CCc2cc(S(=O)(=O)NCCCC(=O)N3CCN(Cc4ccc5c(c4)OCO5)CC3)ccc2N1,inactive
10,CC(C)NS(=O)(=O)c1ccc(OCC(=O)Nc2ccc(F)cc2)cc1,inactive
11,CNC(=S)N/N=C/C1=CCC2CC1C2(C)C (stereo unspecified),inactive
12,Cc1cc(-c2nnc(CCC(=O)NC(C)c3cccc4ccccc34)o2)no1 (stereo unspecified),inactive
13,O=C1c2ccccc2C(=O)c2cc(S(=O)(=O)Nc3ccccc3)ccc21,inactive
14,O=C(Cn1cncc1-c1ccc([N+](=O)[O-])cc1)Nc1ccccc1F,inactive
15,CCc1nn2cc(C(=O)c3cc(C)ccc3O)cnc2c1-c1ccc(F)cc1,inactive
16,COc1ccc(NC(=O)c2ccc3c(c2)NC(=O)CS3)cc1S(=O)(=O)Nc1ccc(Br)cc1,inactive
17,N#CC(C#N)=C1C=CC=CN1/C(=C\c1ccco1)C(=O)c1ccccc1,inactive
18,CS(=O)(=O)NN1C(=O)c2ccccc2NC1c1cccc2cccnc12 (stereo unspecified),inactive
19,COc1ccc(C2C(C#N)=C(C)NC3=C2S(=O)(=O)c2ccccc23)cc1 (stereo unspecified),inactive
20,Cc1ccc(NC(=O)CC2S/C(=N/N=C/c3c[nH]c4ccccc34)NC2=O)cc1 (stereo unspecified),inactive
21,O=C(NNC(=O)C12CC3CC(CC(C3)C1)C2)c1ccco1,inactive
22,O=C(C1=NN[C@@H]2C(=O)N(c3ccccc3C(F)(F)F)C(=O)[C@H]12)c1ccc2ccccc2n1,inactive
23,N=C1C(c2nc3ccccc3s2)=C(O)CN1Cc1ccccc1,inactive
24,CCOC(=O)c1ccc(NC(=O)CSCCC(=O)O)cc1,inactive

row,Compound,percent span (inhibition)
1,Cn1cc(CN2C[C@]3(C)C[C@H]2CC(C)(C)C3)c(-c2ccc3c(c2)OCCO3)n1,inactive
2,CS(=O)(=O)NN1C(=O)c2ccccc2NC1c1ccccc1 (stereo unspecified),inactive
3,Brc1ccc2ncnc(Nc3ccc(N4CCOCC4)cc3)c2c1,inactive
4,O=C1c2ccccc2-c2onc3ccc(NCc4ccco4)c1c23,inactive
5,Fc1ccc(C2=Nn3c(Cc4ccccc4F)nnc3SC2)cc1,inactive
6,CCN(CC)c1ccc(NC(=O)COc2ccccc2C)cc1S(=O)(=O)Nc1ccccc1OC,inactive
7,COC(=O)c1[nH]c2ccccc2c1NC(=O)c1ccccc1[N+](=O)[O-],inactive
8,OC(COc1ccc2ccccc2c1)CN1CCCC1 (stereo unspecified),inactive
9,COc1cc(/C=C2\SC(=S)NC2=O)ccc1OS(=O)(=O)c1ccccc1,inactive
10,COc1ccc(C)cc1-n1c(=O)c2ccccc2c2ccccc2c1=O,inactive
11,CC(C)(C)OC(=O)N1CCN(C(=O)[C@H](Cc2ccc(O)cc2)n2cc(CCO)nn2)CC1,inactive
12,CCOC(=O)N1CCC(c2cc(=O)n(-c3ccccc3)[nH]2)CC1,inactive
13,COc1cc(C=Nc2cccc(C)c2)c(O)c([N+](=O)[O-])c1,inactive
14,CCc1cccc(CC)c1NC(=S)N1CCn2cccc2C1c1cccnc1 (stereo unspecified),inactive
15,Cc1ccc(C(NC(=O)C(C)C)c2cc([N+](=O)[O-])c3cccnc3c2O)cc1 (stereo unspecified),inactive
16,COc1ccc(OC)c2sc(NC(=O)c3ccc(Br)s3)nc12,inactive
17,COc1ccccc1OCc1ccc(C(=O)Nc2ccccc2F)cc1,inactive
18,Clc1nssc1=Nc1ccccc1,inactive
19,Cc1cc[n+]2cc(-c3cccc([N+](=O)[O-])c3)c(-c3cccc([N+](=O)[O-])c3)cc2c1,inactive
20,O=C1C(=O)c2ccc(-c3ccccc3)cc2-c2ccccc21,inactive
21,CC1Cc2ccccc2N1C(=O)c1ccc(N2CCCC2)c([N+](=O)[O-])c1 (stereo unspecified),inactive
22,CC1(C)Cc2c(ccc3ccccc23)/C(=C/C(=O)N2CCCCC2)N1,inactive
23,O=C(NC1=C(Nc2ccc(F)cc2)C(=O)c2ccccc2C1=O)c1ccc(Cl)cc1,inactive
24,Cc1ccc(NS(=O)(=O)c2cc(NC(=O)c3ccc4c(c3)NC(=O)CS4)ccc2C)c(C)c1,inactive

row,Compound,percent span (inhibition)
1,COc1cccc(C(=O)/C=C/Nc2ccc(S(=O)(=O)Nc3onc(C)c3C)cc2)c1,inactive
2,COCc1cc(CN2CCCC(CNC(=O)c3ccc(F)cc3)C2)ccc1OC (stereo unspecified),inactive
3,COc1ccc(N2CC(C(=O)Nc3nnc(SCC(=O)c4ccccc4)s3)CC2=O)cc1 (stereo unspecified),inactive
4,C(=C\c1ccccc1)/CSc1nnc(-c2ccccn2)n1Cc1ccco1,inactive
5,O=C(COc1ccccc1)Nc1ccc2c(c1)Cc1cc(NC(=O)COc3ccccc3)ccc1-2,inactive
6,CN(C)c1ccc(C(=O)/C=C/c2ccc(Br)cc2)cc1,inactive
7,COc1ccc(C2CN(C)CC2C(=O)c2ccc(F)cc2)cc1Cl (stereo unspecified),inactive
8,O=C(CCl)Nc1cccc2ncccc12,inactive
9,CCOC(=O)C1=C(CP(=O)(c2ccccc2)c2ccccc2)NC(=O)NC1c1ccc(OC)cc1 (stereo unspecified),inactive
10,Cc1cc(NC(=O)CCCC(=O)N(CC(=O)NC2CCCCC2)c2ccccc2)no1,inactive
11,CC(=O)Nc1ccc(NC2=C(Cl)C(=O)c3ccccc3C2=O)cc1,inactive
12,CCCCOC(=O)c1nc(Cl)c(Cl)c(N)c1Cl,inactive
13,Cc1cc(C)n(CC(=O)N/N=C/c2cccc([N+](=O)[O-])c2)n1,inactive
14,O=C(CCCN1C(=O)c2cccc3cccc(c23)C1=O)N1CCN(c2ccccn2)CC1,inactive
15,CCOCCOc1nc2c(c(=O)n(C)c(=O)n2C)n1CCc1ccccc1,inactive
16,O=C(CSc1ccc(-c2ccccc2)nn1)NCc1ccco1,inactive
17,S=C(Nc1ccccc1)N1CCn2cccc2C1c1cccnc1 (stereo unspecified),inactive
18,CCCOc1ccc(-c2c(C(=O)N/N=C/c3ccc(OC)cc3)nnn2-c2nonc2N)cc1,inactive
19,Cc1ccc(Nc2nc(CSc3nnc(-c4cccnc4)n3-c3ccccc3C)cs2)cc1,inactive
20,Cc1ccc(C)c(N2CCN(C(=S)Nc3ccc4nc(N5CCN(C)CC5)cc(C)c4c3)CC2)c1,inactive
21,Cc1ccccc1/C=N/Nc1ccnc2cc(Cl)ccc12,inactive
22,CC(=O)N1CCN(C(=O)c2ccc(-n3c(C)ccc3C)cc2)CC1,inactive
23,NC(=O)c1c(NC(=O)C2CCCO2)sc2c1CCCC2 (stereo unspecified),inactive

# — PubChem BioAssay AID1320 (NMMLSC, 2008)
